The target in one experiment is T1, 5-HT1a (Homo sapiens, UniProt P08908).
T1 sequence (P08908 1-422): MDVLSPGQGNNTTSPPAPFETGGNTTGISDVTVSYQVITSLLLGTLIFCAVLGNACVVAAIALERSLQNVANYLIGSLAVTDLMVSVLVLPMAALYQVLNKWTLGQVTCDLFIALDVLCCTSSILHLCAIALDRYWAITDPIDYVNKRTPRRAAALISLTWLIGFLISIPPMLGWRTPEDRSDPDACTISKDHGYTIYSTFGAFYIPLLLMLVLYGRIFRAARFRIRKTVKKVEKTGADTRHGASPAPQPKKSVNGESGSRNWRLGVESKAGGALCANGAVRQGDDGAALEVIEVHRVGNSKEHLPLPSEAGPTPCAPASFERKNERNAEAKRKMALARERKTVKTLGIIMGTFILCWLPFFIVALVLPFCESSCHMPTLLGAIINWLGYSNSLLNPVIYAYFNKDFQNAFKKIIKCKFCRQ
Briefly: 5-HT1a. The format is binding.

Experiment [1] deals with T2, dopamine autoreceptor (D2) (Rattus norvegicus, UniProt P61169).
T2 construct: homogenized rat striatal brain tissue is incubated with; from tissue; host or cells: rat striatal brain tissue, homogenized
Briefly: Affinity for the dopamine autoreceptor: 3H-quinpirole (Quin.) binding in homogenized rat striatal brain tissue.

A further experiment concerns the target T3, dopamine D-2 receptor (Rattus norvegicus, UniProt P61169).
T3 construct: homogenized limbic brain tissue is incubated with; from tissue; host or cells: limbic brain tissue, homogenized
Briefly: Affinity for the dopamine D-2 receptor: 3H-spiroperidol (Spiper.) binding in homogenized limbic brain tissue. The settings on record: read-out: IC50 D2 Spiper.

The subject of another experiment is α1. The experiment in a line: α1. In kind it is binding.

Molecules are shown by their SMILES.

T3 sequence (P61169 whole entry): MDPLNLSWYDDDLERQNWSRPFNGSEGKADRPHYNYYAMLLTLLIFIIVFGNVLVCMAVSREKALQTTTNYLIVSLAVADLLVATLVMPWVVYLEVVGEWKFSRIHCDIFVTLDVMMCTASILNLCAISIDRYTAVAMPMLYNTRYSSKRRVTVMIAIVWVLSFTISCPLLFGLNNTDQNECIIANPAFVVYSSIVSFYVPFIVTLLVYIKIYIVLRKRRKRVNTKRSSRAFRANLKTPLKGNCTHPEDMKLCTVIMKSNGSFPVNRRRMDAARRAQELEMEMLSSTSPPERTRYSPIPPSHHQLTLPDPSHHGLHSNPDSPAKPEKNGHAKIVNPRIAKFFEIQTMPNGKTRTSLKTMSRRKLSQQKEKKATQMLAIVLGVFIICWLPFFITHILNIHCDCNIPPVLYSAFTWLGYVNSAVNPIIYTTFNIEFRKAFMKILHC
T2 sequence (P61169 whole entry): as above

As usually defined, the IC50 is the point on the concentration scale where inhibition reaches its midpoint. For the compound `CCCNCC1CCc2ccc(NS(C)(=O)=O)cc2O1` (centres unmarked) [Example 1c, N-(2-Propylaminomethyl-chroman-7-yl)-methanesulfonamide], the IC50 against 5-HT1a came out at 218 nM; in experiment [1], 184 nM; on dopamine D-2 receptor, 4860 nM; in the experiment on α1, 1420 nM.
In the experiment on α1, `c1ccc(CNCC2CCc3ccccc3O2)cc1` (centres unmarked) [reference compound] displayed an IC50 of 630 nM.

The values are drawn from patent publication US5663194A, “Chroman-2-ylmethylamino derivatives” (priority 1996, dated 1997).
